# Data taken from PubChem BioAssay AID2060495 (Molecular Pharmacology Branch, DTP, NCI, 2025).
# pIC50: −log10 of the molar value.
# Test system: 521955-158-R2-J5-PDC complex spheroid viability
# Test: Anticancer human tumor 521955-158-R2-J5-PDC patient-derived pancreatic carcinoma cell line growth inhibition [GQUAD]
# Settings: for pIC50: curve of first compound; for viability, T/C: stronger effect = lower value
# Summary of the method: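 Tumor cells were grown as complex spheroids with HUVEC endothelial cells and mesenchymal stem cells as stroma. G-quadruplex stabilizers were combined with targeted agents over half-log dilutions from near the clinical Cmax, or from 10 microM.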
# [1] = second compound 0.0316 µM, first compound 0.0316 µM
# [2] = second compound 0.0316 µM, first compound 0.1 µM
# [3] = second compound 0.0316 µM, first compound 0.316 µM
# [4] = second compound 0.0316 µM, first compound 1 µM
# [5] = second compound 0.0316 µM, first compound 3.16 µM
# [6] = second compound 0.0316 µM, first compound 10 µM
# [7] = second compound 0.1 µM, first compound 0.0316 µM
# [8] = second compound 0.1 µM, first compound 0.1 µM
# [9] = second compound 0.1 µM, first compound 0.316 µM
# [10] = second compound 0.1 µM, first compound 1 µM
# [11] = second compound 0.1 µM, first compound 3.16 µM
# [12] = second compound 0.1 µM, first compound 10 µM
# [13] = second compound 0.316 µM, first compound 0.0316 µM
# [14] = second compound 0.316 µM, first compound 0.1 µM
# [15] = second compound 0.316 µM, first compound 0.316 µM
# [16] = second compound 0.316 µM, first compound 1 µM
# [17] = second compound 0.316 µM, first compound 3.16 µM
# [18] = second compound 0.316 µM, first compound 10 µM
# [19] = second compound 1 µM, first compound 0.0316 µM
# [20] = second compound 1 µM, first compound 0.1 µM
# [21] = second compound 1 µM, first compound 0.316 µM
# [22] = second compound 1 µM, first compound 1 µM
# [23] = second compound 1 µM, first compound 3.16 µM
# [24] = second compound 1 µM, first compound 10 µM
# [25] = second compound 3.16 µM, first compound 0.0316 µM
# [26] = second compound 3.16 µM, first compound 0.1 µM
# [27] = second compound 3.16 µM, first compound 0.316 µM
# [28] = second compound 3.16 µM, first compound 1 µM
# [29] = second compound 3.16 µM, first compound 3.16 µM
# [30] = second compound 3.16 µM, first compound 10 µM
# [31] = second compound 10 µM, first compound 0.0316 µM
# [32] = second compound 10 µM, first compound 0.1 µM
# [33] = second compound 10 µM, first compound 0.316 µM
# [34] = second compound 10 µM, first compound 1 µM
# [35] = second compound 10 µM, first compound 3.16 µM
# [36] = second compound 10 µM, first compound 10 µM
# [37] = second compound 0.0316 µM, first compound 0.000999 µM
# [38] = second compound 0.0316 µM, first compound 0.00316 µM
# [39] = second compound 0.0316 µM, first compound 0.00999 µM
# [40] = second compound 0.0316 µM, first compound 0.0999 µM
# [41] = second compound 0.1 µM, first compound 0.000999 µM
# [42] = second compound 0.1 µM, first compound 0.00316 µM
# [43] = second compound 0.1 µM, first compound 0.00999 µM
# [44] = second compound 0.1 µM, first compound 0.0999 µM
# [45] = second compound 0.316 µM, first compound 0.000999 µM
# [46] = second compound 0.316 µM, first compound 0.00316 µM
# [47] = second compound 0.316 µM, first compound 0.00999 µM
# [48] = second compound 0.316 µM, first compound 0.0999 µM
# [49] = second compound 1 µM, first compound 0.000999 µM
# [50] = second compound 1 µM, first compound 0.00316 µM
# [51] = second compound 1 µM, first compound 0.00999 µM
# [52] = second compound 1 µM, first compound 0.0999 µM
# [53] = second compound 3.16 µM, first compound 0.000999 µM
# [54] = second compound 3.16 µM, first compound 0.00316 µM
# [55] = second compound 3.16 µM, first compound 0.00999 µM
# [56] = second compound 3.16 µM, first compound 0.0999 µM
# [57] = second compound 10 µM, first compound 0.000999 µM
# [58] = second compound 10 µM, first compound 0.00316 µM
# [59] = second compound 10 µM, first compound 0.00999 µM
# [60] = second compound 10 µM, first compound 0.0999 µM
# 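Further: spheroids exposed to agents for one week before reading.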
# 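Wherever viability, T/C is given: 100% = DMSO vehicle control viability.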
smiles,measurement,setting,value
CC1COCCN1c1cc(C2(S(C)(=N)=O)CC2)nc(-c2ccnc3[nH]ccc23)n1 (stereo not drawn) + Cc1[nH]c2ccc(F)cc2c1-c1nc2c3cccnc3c3ncccc3c2[nH]1,pIC50,second compound 0.0316 µM,6.16
same,pIC50,second compound 0.1 µM,6.10
same,pIC50,second compound 0.316 µM,6.13
same,pIC50,second compound 1 µM,6.15
same,pIC50,second compound 3.16 µM,6.09
same,pIC50,second compound 10 µM,6.14
same,"viability, T/C",[1],113%
same,"viability, T/C",[2],103%
same,"viability, T/C",[3],114%
same,"viability, T/C",[4],22.6%
same,"viability, T/C",[5],10.1%
same,"viability, T/C",[6],11.7%
same,"viability, T/C",[7],96.6%
same,"viability, T/C",[8],109%
same,"viability, T/C",[9],111%
same,"viability, T/C",[10],35.9%
same,"viability, T/C",[11],8.56%
same,"viability, T/C",[12],8.84%
same,"viability, T/C",[13],108%
same,"viability, T/C",[14],91.7%
same,"viability, T/C",[15],101%
same,"viability, T/C",[16],31.7%
same,"viability, T/C",[17],9.15%
same,"viability, T/C",[18],10.3%
same,"viability, T/C",[19],93.2%
same,"viability, T/C",[20],104%
same,"viability, T/C",[21],117%
same,"viability, T/C",[22],27.1%
same,"viability, T/C",[23],11.5%
same,"viability, T/C",[24],11.7%
same,"viability, T/C",[25],85.2%
same,"viability, T/C",[26],105%
same,"viability, T/C",[27],99.1%
same,"viability, T/C",[28],39.3%
same,"viability, T/C",[29],13.7%
same,"viability, T/C",[30],8.99%
same,"viability, T/C",[31],109%
same,"viability, T/C",[32],105%
same,"viability, T/C",[33],110%
same,"viability, T/C",[34],27.4%
same,"viability, T/C",[35],14.7%
same,"viability, T/C",[36],10.9%
CCc1c2c(nc3ccc(O)cc13)-c1cc3c(c(=O)n1C2)COC(=O)[C@]3(O)CC + Cc1[nH]c2ccc(F)cc2c1-c1nc2c3cccnc3c3ncccc3c2[nH]1,pIC50,second compound 0.0316 µM,8.84
same,pIC50,second compound 0.1 µM,8.80
same,pIC50,second compound 0.316 µM,8.82
same,pIC50,second compound 1 µM,8.83
same,pIC50,second compound 3.16 µM,8.74
same,pIC50,second compound 10 µM,8.79
same,"viability, T/C",[37],66.5%
same,"viability, T/C",[38],14.4%
same,"viability, T/C",[39],8.08%
same,"viability, T/C",[1],6.13%
same,"viability, T/C",[40],5.29%
same,"viability, T/C",[3],2.46%
same,"viability, T/C",[41],73.5%
same,"viability, T/C",[42],13.8%
same,"viability, T/C",[43],8.38%
same,"viability, T/C",[7],6.85%
same,"viability, T/C",[44],5.08%
same,"viability, T/C",[9],3.05%
same,"viability, T/C",[45],70.8%
same,"viability, T/C",[46],13.3%
same,"viability, T/C",[47],7.87%
same,"viability, T/C",[13],5.41%
same,"viability, T/C",[48],5.92%
same,"viability, T/C",[15],2.25%
same,"viability, T/C",[49],69.9%
same,"viability, T/C",[50],11.7%
same,"viability, T/C",[51],7.26%
same,"viability, T/C",[19],5.78%
same,"viability, T/C",[52],5.91%
same,"viability, T/C",[21],1.75%
same,"viability, T/C",[53],83.5%
same,"viability, T/C",[54],18.2%
same,"viability, T/C",[55],8.66%
same,"viability, T/C",[25],7.44%
same,"viability, T/C",[56],3.96%
same,"viability, T/C",[27],2.23%
same,"viability, T/C",[57],72.8%
same,"viability, T/C",[58],16.9%
same,"viability, T/C",[59],11.9%
same,"viability, T/C",[31],8.45%
same,"viability, T/C",[60],5.37%
same,"viability, T/C",[33],2.72%
Cc1cccc(N(C)C(=O)C2C(O)CCN2c2nc(C)cc(C(F)(F)F)c2C#N)c1 (stereo not drawn) + Cc1[nH]c2ccc(F)cc2c1-c1nc2c3cccnc3c3ncccc3c2[nH]1,pIC50,second compound 0.0316 µM,< 5.00
same,pIC50,second compound 0.1 µM,< 5.00
same,pIC50,second compound 0.316 µM,< 5.00
same,pIC50,second compound 1 µM,< 5.00
same,pIC50,second compound 3.16 µM,< 5.00
same,pIC50,second compound 10 µM,< 5.00
same,"viability, T/C",[1],111%
same,"viability, T/C",[2],85.8%
same,"viability, T/C",[3],110%
same,"viability, T/C",[4],107%
same,"viability, T/C",[5],110%
same,"viability, T/C",[6],123%
same,"viability, T/C",[7],92.2%
same,"viability, T/C",[8],109%
same,"viability, T/C",[9],94.7%
same,"viability, T/C",[10],106%
same,"viability, T/C",[11],126%
same,"viability, T/C",[12],120%
same,"viability, T/C",[13],91.1%
same,"viability, T/C",[14],93.5%
same,"viability, T/C",[15],101%
same,"viability, T/C",[16],114%
same,"viability, T/C",[17],112%
same,"viability, T/C",[18],111%
same,"viability, T/C",[19],92.7%
same,"viability, T/C",[20],100%
same,"viability, T/C",[21],108%
same,"viability, T/C",[22],105%
same,"viability, T/C",[23],128%
same,"viability, T/C",[24],115%
same,"viability, T/C",[25],110%
same,"viability, T/C",[26],88.2%
same,"viability, T/C",[27],92.5%
same,"viability, T/C",[28],91.8%
same,"viability, T/C",[29],132%
same,"viability, T/C",[30],120%
same,"viability, T/C",[31],115%
same,"viability, T/C",[32],104%
same,"viability, T/C",[33],104%
same,"viability, T/C",[34],122%
same,"viability, T/C",[35],126%
same,"viability, T/C",[36],113%
Cn1ncnc1[C@H]1c2n[nH]c(=O)c3cc(F)cc(c23)N[C@@H]1c1ccc(F)cc1 + Cc1[nH]c2ccc(F)cc2c1-c1nc2c3cccnc3c3ncccc3c2[nH]1,pIC50,second compound 0.0316 µM,< 6.50
same,pIC50,second compound 0.1 µM,< 6.50
same,pIC50,second compound 0.316 µM,< 6.50
same,pIC50,second compound 1 µM,< 6.50
same,pIC50,second compound 3.16 µM,< 6.50
same,pIC50,second compound 10 µM,< 6.50
same,"viability, T/C",[37],95.7%
same,"viability, T/C",[38],86.3%
same,"viability, T/C",[39],93.5%
same,"viability, T/C",[1],91%
same,"viability, T/C",[40],73.2%
same,"viability, T/C",[3],59.8%
same,"viability, T/C",[41],89.4%
same,"viability, T/C",[42],106%
same,"viability, T/C",[43],90.9%
same,"viability, T/C",[7],80.4%
same,"viability, T/C",[44],91.1%
same,"viability, T/C",[9],74.4%
same,"viability, T/C",[45],94.3%
same,"viability, T/C",[46],96%
same,"viability, T/C",[47],83.6%
same,"viability, T/C",[13],88.7%
same,"viability, T/C",[48],70.4%
same,"viability, T/C",[15],73.1%
same,"viability, T/C",[49],91.7%
same,"viability, T/C",[50],93.7%
same,"viability, T/C",[51],91%
same,"viability, T/C",[19],74.2%
same,"viability, T/C",[52],102%
same,"viability, T/C",[21],73.6%
same,"viability, T/C",[53],93%
same,"viability, T/C",[54],107%
same,"viability, T/C",[55],83.9%
same,"viability, T/C",[25],86.8%
same,"viability, T/C",[56],70.8%
same,"viability, T/C",[27],69.8%
same,"viability, T/C",[57],92.7%
same,"viability, T/C",[58],80.5%
same,"viability, T/C",[59],82.6%
same,"viability, T/C",[31],86.1%
same,"viability, T/C",[60],77.8%
same,"viability, T/C",[33],68.1%
